Results taken from US20210196789A1, “HEPARIN-BINDING DOMAIN OF IGFBP-2 IN THE TREATMENT OF METABOLIC DISORDERS” (AMOLYT PHARMA, priority 2018, published 2021).
“Also recorded” adds a separate entry of the source. No end group written: not given here. *: point of attachment. Stearoyl = CCCCCCCCCCCCCCCCCC(=O)*

What was measured:
[1] = tested on: C2C12 mouse skeletal muscle myotubes; test: 3H-2-deoxyglucose uptake by fully differentiated C2C12 myotubes; assay type: cell-based
Procedure: The studies were performed using cultured, fully differentiated C2C12 mouse skeletal muscle myotubes. The cells were prepared by growing C2C12 cells to confluent density in DMEM with 25 mM glucose and 10% fetal bovine serum in 24 well plates. At this time, the medium was changed to differentiation medium (DMEM with 25 mM glucose and 2% horse serum) for 6 days with medium changed every third day. The various treatments were diluted in serum-free medium and, after washing the cells with serum-free medium, were added to the cells and incubated for 2 hours or alternative times, depending on the treatment. At the end of incubation period, the media was removed and 1.0 ml of glucose-free Krebs ringer bicarbonate buffer (pH 7.4), containing the same treatments, was added and incubation continued for 10 minutes. At the end of the 10 min incubation period, ^3H-2-deoxyglucose ([…]) (specific activity=8 Ci/mmole) was added directly to all wells, and the incubation continued for an additional 10 min. The wells were then rinsed three times with ice cold phosphate buffered saline, the cells were extracted with 0.5 N NaOH, and the ^3H-2-deoxyglucose content of the cell lysate quantitated by scintillation counting.

AMPK = AMPK phosphorylation (pT172 immunoblot) in C2C12 myotubes; assay type: cell-based, mouse
Procedure: (§1) For signaling studies the cells were prepared the same way except 6-well plates were used. After 6 days incubation in differentiating medium, the cells were washed with serum-free medium. The various treatments were then added in serum free medium containing 0.1% BSA. HBD1 peptides were added and incubated for 8 hours. When utilizing IGF-I, incubation was for 15 minutes after IGF-1 addition. Following incubation the cells were lysed in RIPA buffer and sonicated. The cell lysate was centrifuged and the supernatant analyzed for either Akt or AMPK by SDS PAGE using a 10% gel followed by immunoblotting with the appropriate antibody.
To examine further the intracellular transduction pathways utilized by the HBD1 peptides, following treatment with HBD1 peptide SEQ ID NO: 73 (C18:0-HLGLEEPKK), cell lysate proteins, were separated by SDS PAGE and immunoblotted with anti-pAMPK T172.

[2] = tested on: B6.V-Lepob/J mice (ob/ob); test: Intraperitoneal glucose tolerance test in ob/ob mice after 15 days of twice daily treatment; assay type: in vivo, mouse; details: 3 mg/kg s.c. twice daily for 15 days, 45 min after 1 g/kg i.p. glucose, vs vehicle
Procedure: After being acclimatized 7 days to the laboratory conditions, nine-week-old male B6.V-Lepob/J. mice (Charles River) were subcutaneously administered with vehicle (NaCl 0.9%) or with a peptide as set forth in SEQ ID NO: 73 (C18:0-HLGLEEPKK) at 3 mg/kg (n=5 animals for each group) twice daily for 15 days. On day 15, fasted (overnight) mice were injected intraperitoneally with glucose at 1 g/kg. Plasma blood glucose (expressed as mmol/L) was recorded at 45 minutes post glucose injection.

[3] = tested on: glucose telemetered ob/ob mice; test: Basal blood glucose and IPGTT in glucose-telemetered ob/ob mice, 28 days of twice daily treatment; assay type: in vivo, mouse; details: for glucose intolerance: glucose telemetered ob/ob mice, 1 and 3 mg/kg s.c. twice daily, 27-28 days, vs vehicle
Procedure: To further assess the effects of HBD1 peptides on glucose and insulin metabolisms, basal blood glucose and glucose response to an intraperitoneal glucose tolerance test (IPGTT) were assessed in glucose-telemetered obese ob/ob mice after twice daily administration of HBD peptides for 28 consecutive days. Implantation of glucose telemetry device (HD-XG, Data Science International) was carried out according to known protocols.
A dose of HBD peptide fragment of SEQ ID NO: 73 (C18:0-HLGLEEPKK) was administered twice daily at 8-hour±1 hour interval between the two daily administrations. 24 V-Lepob/J (Ob/Ob) male mice (The Jackson Laboratory, Farmington, Conn. USA) were administered subcutaneously with vehicle (NaCl 0.9%) (Control group) or with the peptide at 1 and 3 mg/kg (Test groups) (n=5-8 animals for each group) twice daily for 28 days. The first day of dosing was designated as Day 1. Bolus injection was carried out using a sterile syringe and the needle was introduced subcutaneously, 2 to 4 injection sites were used in rotation. The hair of the animals on the injection area was clipped prior to the first injection and then as necessary during the treatment period. The volume administered was 5 mL/kg/administration. Individual dose volumes were calculated using the latest body weight. On day 27, 16-hour mean blood glucose levels were assessed in normal fed conditions. On day 28, fasted (4 hours) mice were injected intraperitoneally with glucose at 1 g/kg. Plasma blood glucose profile (expressed as mg/dL) was recorded every minute up to 3-hour post glucose injection.
Intraperitoneal glucose tolerance test (IPGTT)—On the morning of the IGPTT day (day 28), 2-hour fasted animals were treated with vehicle or with the HBD fragment. Glucose solution was administered 2 hours±15 minutes post-dosing (vehicle or a peptide as set forth in SEQ ID NO: 73 (C18:0-HLGLEEPKK). Blood glucose was monitored from 10 minutes before (fasting condition) to 3-hour post-glucose challenge. Food was re-introduced 4 hours post-glucose challenge. The second treatment of the day (the HBD fragment or vehicle) was performed 2 hours after food re-introduction.

3T3-LI adipocytes = test: [3H]-2-deoxyglucose uptake by fully differentiated 3T3-LI adipocytes; assay type: cell-based, mouse; details: 3 μg/ml for 24 hours
Procedure: 3T3-LI cells are a mouse fibroblast cell line which when cultured under specific conditions, differentiate into adipocytes.
Differentiation of 3T3-LI cells into adipocytes was achieved using the following protocol. 3T3-L1 cells were seeded in 24-well plates and cultured in 3T3-L1 maintenance medium (DMEM containing 10% fetal bovine serum, 4 mM L-glutamine 1 mM, sodium pyruvate) until the cells were 100% confluent. The cells were then fed with 3T3-L1 maintenance medium and cultured for a further 48 h. To initiate differentiation into adipocytes, the medium was changed to Differentiation medium 1 (DMEM containing 10% fetal bovine serum, 4 mM L-glutamine, 1 mM sodium pyruvate, 0.5 mM IBMX, […]), and cultured for a further 2 days. The medium was then changed to Differentiation medium 2 (DMEM containing 10% fetal bovine serum, 4 mM L-glutamine, 1 mM sodium pyruvate, 1 mg/ml insulin), and cultured for a further 2 days. The medium was then changed to Adipocyte Maintenance medium (DMEM containing 10% fetal bovine serum, 4 mM L-glutamine, 1 mM sodium pyruvate), and cultured for a further 7 days. During this time, the medium was changed every other day. The now fully differentiated adipocytes were utilized for glucose uptake experiments (day 11 from initiation of differentiation). Stock solutions of the HBD1 peptides to be tested were prepared by dilution with 0.9% NaCl solution under sterile conditions in a laminar flow cabinet to a concentration of 1 mg/ml, based on net peptide content. The solutions were homogenized by gentle inversion. Test items were prepared from the stock solutions, and remaining stock solution was aliquoted and stored at −20° C. and used without repeated freeze-thaw cycles.
Glucose uptake experiments were carried our using the following protocol. Prior to beginning the experiment, 100 ml of Krebs Ringer bicarbonate buffer (KRBB)(25 mM Hepes pH 7.4, 118 mM NaCl, 5 mM NaHCO3, 4.7 mM KCl, 1.2 mM KH2PO4, 1.2 mM MgSO4, 2.5 mM CaCl2, 0.2% BSA—Filtered using a 0.2 μm filter) and 100 ml of Incubation medium (DMEM containing 4 mM L-glutamine, 1 mM sodium pyruvate, 1% penicillin streptomycin, 0.2% BSA—Filtered using a 0.2 μm filter) were pre-warmed to 37° C., and 500 ml of KRBB was chilled on ice. Stock solutions of test compounds were diluted to 3 μg/ml final concentrations in pre-warmed Incubation medium and in pre-warmed KRBB. Insulin (positive control), previously diluted 1:1000 in sterile 0.9% NaCl, was further diluted in 10 ml of both medium and buffer to a final concentration of 1 nM. All traces of the medium were carefully removed from the cells using a fine tip. 1 ml of incubation medium containing study compounds or vehicle was added to the appropriate wells. No insulin was added at this time. […]

Akt = Akt phosphorylation (pS473 immunoblot) in C2C12 myotubes; assay type: cell-based, mouse; details: 8 hours incubation (FIG. 6)
Procedure: as §1
To examine the intracellular transduction pathways utilized by the HBD1 peptides, following treatment with HBD1 peptide SEQ ID NO: 73 (C18:0-HLGLEEPKK), cell lysate proteins were separated by SDS PAGE and immunoblotted with anti-Akt pS473 antibodies.

mice = mice (Xi, 2013); cited from earlier work
[4] = listed as acylated HBD1 (3-11) fragment

## c1cc(-c2cnn3cc(-c4ccc(OCCN5CCCCC5)cc4)cnc23)ccn1 [Compound C, reference compound]
[1]; C2C12 myotubes, SEQ ID NO: 73 alone or together with insulin (FIG. 8)
  effect on SEQ ID NO: 73-stimulated glucose uptake: completely abolished; also recorded: prevented
AMPK; C2C12 myotubes treated with SEQ ID NO: 73 (FIG. 7)
  effect on SEQ ID NO: 73-induced AMPK phosphorylation: completely abolished; also recorded: prevented

## C18:0-HLGLEEPKK (Stearoyl-HLGLEEPKK) [SEQ ID NO: 73]
[2]
  plasma glucose levels in response to the IP glucose tolerance test: reduced the plasma glucose levels
[2]; [4]
  plasma glucose levels in response to the IP glucose tolerance test: improves glucose intolerance
[3]; 3 mg/kg, after 4 weeks
  effect on fasting glucose and glucose excursion at the high dose: marked effect
[3]; after 4 weeks of administration, 3-hour profile after 1 g/kg i.p. glucose
  glucose excursion following IPGTT: decreased
[3]; after 4 weeks of administration, 10 min prior to IPGTT
  fasting glucose levels: decreased fasting glucose levels
[3]; day 27, normal fed conditions
  16-hour average blood glucose levels: markedly decrease 16-hour average blood glucose levels
[3]
  glucose intolerance: improved glucose intolerance in a dose-dependent manner
[3]; [4]
  glucose intolerance: improves glucose intolerance
[1]; 1.5 μM together with insulin (FIG. 8)
  glucose uptake by C2C12 myotubes with insulin, separate experiment: act additively with insulin; also recorded: in an additive manner with insulin
[1]; 1.5 μM, alone (FIG. 8)
  glucose uptake by C2C12 myotubes, separate experiment: increased glucose uptake
[1]; 0.8, 1.5, 2.3 μM, 1.5 μM for 2, 4, 16 hours, vs vehicle-treated controls (FIGS. 5A-5B)
  glucose uptake by C2C12 myotubes: stimulated increased glucose uptake as compared with vehicle-treated controls in both a dose- and time-dependent manner; also recorded: dose-dependent (FIG. 5A) and time-dependent (FIG. 5B) increases in glucose uptake
[1]; in combination with insulin (FIG. 5C)
  glucose uptake by C2C12 myotubes in combination with insulin: additive increase in glucose uptake
3T3-LI adipocytes
  glucose uptake by 3T3-LI adipocytes: stimulated increased glucose uptake
Akt
  phosphorylated Akt: dose-related increase in phosphorylated Akt; also recorded: dose-dependent phosphorylation (activation) of the Akt pathway
AMPK; C2C12 myotubes, 8 hours incubation (FIG. 7)
  phosphorylated AMPK: dose-dependent increase in phosphorylated AMPK; also recorded: dose-dependent phosphorylation (activation) of the AMPK pathway

## HHLGLEEPKK [SEQ ID NO: 16]
3T3-LI adipocytes
  glucose uptake by 3T3-LI adipocytes: stimulated increased glucose uptake

## HLGLEEPKK [SEQ ID NO: 10]
3T3-LI adipocytes
  glucose uptake by 3T3-LI adipocytes: stimulated increased glucose uptake

## KHHLGLEEPKKLR [SEQ ID NO: 1]
mice
  body weight and fat accumulation: decrease body weight and fat accumulation
  glucose tolerance: no effect on glucose tolerance
3T3-LI adipocytes
  glucose uptake by 3T3-LI adipocytes: stimulated increased glucose uptake
